The values below come from patent US20260015350A1, “AZAQUINAZOLINE PAN-KRAS INHIBITORS” (Mirati Therapeutics, Inc., priority 2022, published 2026).

SMILES strings stand for the structures.

One assay concerns the target T1, KRas^G12D (Homo sapiens, UniProt P01116, G12D).
T1 construct: Biotinylated KRas (corresponding to amino acids 1-169, produced at Accelegan Inc.); biotin (biotinylated); purchased Accelegan Inc
As to the kind of experiment: KRas binding assay (TR-FRET tracer displacement), KRas G12D. For orientation: In TR-FRET formats the signal depends on donor and acceptor labels being close together.

For a further assay, the target named is T2, KRas^G12R (Homo sapiens, UniProt P01116, G12R).
T2 construct: Biotinylated KRas (corresponding to amino acids 1-169, produced at Accelegan Inc.); biotin (biotinylated); purchased Accelegan Inc
The assay is described as follows: KRas binding assay (TR-FRET tracer displacement), KRas G12R.

For another assay, the target named is T3, KRas^G12V (Homo sapiens, UniProt P01116, G12V).
T3 construct: Biotinylated KRas (corresponding to amino acids 1-169, produced at Accelegan Inc.); biotin (biotinylated); purchased Accelegan Inc
As to the kind of experiment: KRas binding assay (TR-FRET tracer displacement), KRas G12V.

The subject of assay [1] is KRas-mediated phosphorylation of ERK in AsPC-1 cells. The assay is described as follows: Inhibition of KRas-mediated phosphorylation of ERK (Cisbio HTRF pERK), AsPC-1 cells. In kind it is cell-based. Particulars: Homo sapiens; for IC50: ASPC1, AsPC-1 cells, HTRF pERK. The procedure, abridged: (§1)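 Min control wells contained 0.2 uM Trametinib, while test compounds ran as 10 doses (3-fold, top 10 uM; 0.8% DMSO final) on cells for 3 hrs. After 40 mins lysis at 4° C, lysates were probed with HTRF antibodies for 2 hrs at room temperature.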

Assay [2] concerns KRas-mediated phosphorylation of ERK in H727 cells. As to the kind of experiment: Inhibition of KRas-mediated phosphorylation of ERK (Cisbio HTRF pERK), H727 cells. The settings on record: Homo sapiens; for IC50: NCI-H727, H727 cells, HTRF pERK. In kind it is cell-based. Summed up: as §1

T3 sequence (P01116 1-169 isoform P01116-2 G12V): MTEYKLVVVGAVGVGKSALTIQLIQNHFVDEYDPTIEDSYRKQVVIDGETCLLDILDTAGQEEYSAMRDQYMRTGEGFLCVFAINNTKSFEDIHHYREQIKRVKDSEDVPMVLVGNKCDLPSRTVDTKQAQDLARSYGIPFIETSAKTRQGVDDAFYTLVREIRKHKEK
T1 sequence (P01116 1-169 isoform P01116-2 G12D): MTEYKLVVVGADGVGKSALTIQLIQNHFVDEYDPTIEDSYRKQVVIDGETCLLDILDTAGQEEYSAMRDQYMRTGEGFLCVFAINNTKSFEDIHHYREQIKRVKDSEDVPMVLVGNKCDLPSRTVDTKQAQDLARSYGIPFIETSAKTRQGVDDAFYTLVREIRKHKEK
T2 sequence (P01116 1-169 isoform P01116-2 G12R): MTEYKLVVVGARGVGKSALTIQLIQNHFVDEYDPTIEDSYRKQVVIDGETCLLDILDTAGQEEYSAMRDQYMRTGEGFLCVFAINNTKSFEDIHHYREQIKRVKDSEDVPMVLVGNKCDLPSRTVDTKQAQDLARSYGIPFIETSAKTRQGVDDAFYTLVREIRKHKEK

Take `CCc1c(F)ccc2cc(O)cc(-c3ncc4c(N5C[C@@H]6[C@@H](C(N)=O)NC(=O)[C@@H]6C5)nc(OC[C@@]56CCCN5C[C@H](F)C6)nc4c3F)c12` [Example 622, (3aS,6aR)-5-(7-(8-ethyl-7-fluoro-3-hydroxynaphthalen-1-yl)-8-fluoro-2-(((2R,7aS)-2-fluorotetrahydro-1H-pyrrolizin-7a(5H)-yl)methoxy)pyrido[4,3-d]pyrimidin-4-yl)-3-oxooctahydropyrrolo[3,4-c]pyrrole-1-carboxamide]: the IC50 at KRas^G12D is 377 nM; at KRas^G12R, 139 nM; at KRas^G12V, 68 nM; in assay [1], greater than 10000 nM; in assay [2], greater than 10000 nM.
In the case of `CCc1c(F)ccc2cc(O)cc(-c3ncc4c(NCc5cc(C(=O)N(C)C)nn5C5CCC5O)nc(OC[C@@]56CCCN5C[C@H](F)C6)nc4c3F)c12` (stereo partly drawn) [Example 677, 5-(((7-(8-ethyl-7-fluoro-3-hydroxynaphthalen-1-yl)-8-fluoro-2-(((2R,7aS)-2-fluorotetrahydro-1H-pyrrolizin-7a(5H)-yl)methoxy)pyrido[4,3-d]pyrimidin-4-yl)amino)methyl)-1-(2-hydroxycyclobutyl)-N,N-dimethyl-1H-pyrazole-3-carboxamide], the IC50 at KRas^G12D was 13 nM; on KRas^G12R, less than 2 nM; at KRas^G12V it was less than 2 nM; in assay [2] it was 4580 nM. The inhibition at 0.1 µM in assay [1] (ASPC1, 3 h, single point, 100 nM compound, 3 hrs, AsPC-1 cells) was -8%; in assay [2] (NCI-H727, 3 h, single point, 100 nM compound, 3 hrs, H727 cells) it was 2%.
`CCc1c(F)ccc2cc(O)cc(-c3ncc4c(N5Cc6n[nH]c(C(=O)N(C)C)c6C5)nc(OC[C@@]56CCCN5C[C@H](F)C6)nc4c3F)c12` [Example 635, 5-(7-(8-ethyl-7-fluoro-3-hydroxynaphthalen-1-yl)-8-fluoro-2-(((2R,7aS)-2-fluorotetrahydro-1H-pyrrolizin-7a(5H)-yl)methoxy)pyrido[4,3-d]pyrimidin-4-yl)-N,N-dimethyl-2,4,5,6-tetrahydropyrrolo[3,4-c]pyrazole-3-carboxamide]: the IC50 at KRas^G12D was 1640 nM; on KRas^G12R it was 766 nM; on KRas^G12V, 454 nM; in assay [1], greater than 10000 nM; in assay [2] it was greater than 10000 nM.
`CCc1c(F)ccc2cc(O)cc(-c3ncc4c(N5C[C@@H]6[C@@H](CC#N)NC(=O)[C@@H]6C5)nc(OC[C@@]56CCCN5C[C@H](F)C6)nc4c3F)c12` [Example 606, 2-((1R,3aS,6aR)-5-(7-(8-ethyl-7-fluoro-3-hydroxynaphthalen-1-yl)-8-fluoro-2-(((2R,7aS)-2-fluorohexahydro-1H-pyrrolizin-7a-yl)methoxy)pyrido[4,3-d]pyrimidin-4-yl)-3-oxooctahydropyrrolo[3,4-c]pyrrol-1-yl) acetonitrile]: the IC50 at KRas^G12D is 26 nM; at KRas^G12R it was 71 nM; at KRas^G12V, 43 nM; in assay [1], greater than 10000 nM; in assay [2], greater than 10000 nM.
Consider `CCc1c(F)ccc2cc(O)cc(-c3ncc4c(NCc5cc(C(=O)N(C)C)nn5[C@H]5C[C@H](O)C5)nc(OC[C@@]56CCCN5C[C@H](F)C6)nc4c3F)c12` [Example 682, 5-(((7-(8-ethyl-7-fluoro-3-hydroxynaphthalen-1-yl)-8-fluoro-2-(((2R,7aS)-2-fluorotetrahydro-1H-pyrrolizin-7a(5H)-yl)methoxy)pyrido[4,3-d]pyrimidin-4-yl)amino)methyl)-1-(trans-3-hydroxycyclobutyl)-N,N-dimethyl-1H-pyrazole-3-carboxamide], for which the IC50 was 710 nM on KRas^G12D; 541 nM at KRas^G12R; 192 nM at KRas^G12V; greater than 10000 nM in assay [1]; greater than 10000 nM in assay [2].
For the compound `CCc1c(F)ccc2cc3[nH]ncc3c(-c3ncc4c(N5CCC[C@]6(C5)NC(=O)NC6=O)nc(OCC56CCCN5CCC6)nc4c3F)c12` [Example 884, (5R)-7-(7-(5-ethyl-6-fluoro-1H-benzo[f]indazol-4-yl)-8-fluoro-2-((tetrahydro-1H-pyrrolizin-7a(5H)-yl)methoxy)pyrido[4,3-d]pyrimidin-4-yl)-1,3,7-triazaspiro[4.5]decane-2,4-dione], the IC50 was less than 2 nM at KRas^G12D; less than 2 nM on KRas^G12R; less than 2 nM at KRas^G12V; 3180 nM in assay [1]; 2810 nM in assay [2].
Take `CCc1c(F)ccc2cc(O)cc(-c3ncc4c(N5CCC[C@@](C)(O)C5)nc(OCC56CC5CCCN(C)C6)nc4c3F)c12` (stereo partly drawn) [Example 828, (3R)-1-(7-(8-ethyl-7-fluoro-3-hydroxynaphthalen-1-yl)-8-fluoro-2-((3-methyl-3-azabicyclo[5.1.0]octan-1-yl)methoxy)pyrido[4,3-d]pyrimidin-4-yl)-3-methylpiperidin-3-ol]: the IC50 was 11400 nM on KRas^G12D; 21400 nM on KRas^G12R; 12700 nM on KRas^G12V; greater than 10000 nM in assay [1]; greater than 10000 nM in assay [2].
For the compound `CCc1c(F)ccc2cc(O)cc(-c3ncc4c(NCc5cc(C(=O)N(C)C)nn5C[C@H]5C[C@H](O)C5)nc(OC[C@@]56CCCN5C[C@H](F)C6)nc4c3F)c12` [Example 686, 5-(((7-(8-ethyl-7-fluoro-3-hydroxynaphthalen-1-yl)-8-fluoro-2-(((2R,7aS)-2-fluorohexahydro-1H-pyrrolizin-7a-yl)methoxy)pyrido[4,3-d]pyrimidin-4-yl)amino)methyl)-1-((trans-3-hydroxycyclobutyl)methyl)-N,N-dimethyl-1H-pyrazole-3-carboxamide], the IC50 is 21 nM on KRas^G12D; 5 nM at KRas^G12R; 6 nM on KRas^G12V; greater than 10000 nM in assay [1]; 8840 nM in assay [2].
On to `CCc1c(F)ccc2cc(O)cc(-c3ncc4c(N5Cc6n[nH]c(C(N)=O)c6C5)nc(OC[C@@]56CCCN5C[C@H](F)C6)nc4c3F)c12` [Example 588, 5-(7-(8-ethyl-7-fluoro-3-hydroxynaphthalen-1-yl)-8-fluoro-2-(((2R,7aS)-2-fluorotetrahydro-1H-pyrrolizin-7a(5H)-yl)methoxy)pyrido[4,3-d]pyrimidin-4-yl)-2,4,5,6-tetrahydropyrrolo[3,4-c]pyrazole-3-carboxamide], for which the IC50 at KRas^G12D is 1780 nM; at KRas^G12R, 621 nM; at KRas^G12V, 314 nM; in assay [1], greater than 10000 nM; in assay [2], greater than 10000 nM.
As for `CCc1c(F)ccc2cc(O)cc(-c3ncc4c(N5CCCC6(C5)CN(S(C)(=O)=O)C6)nc(OC[C@@]56CCCN5C[C@H](F)C6)nc4c3F)c12` [Example 654, 5-ethyl-6-fluoro-4-(8-fluoro-2-(((2R,7aS)-2-fluorohexahydro-1H-pyrrolizin-7a-yl)methoxy)-4-(2-(methylsulfonyl)-2,6-diazaspiro[3.5]nonan-6-yl)pyrido[4,3-d]pyrimidin-7-yl)naphthalen-2-ol], the half-inhibitory concentration (IC50) on KRas^G12D worked out at 19 nM; on KRas^G12R, 18 nM; at KRas^G12V it was 25 nM; in assay [1], 1410 nM; in assay [2], 1790 nM.
With `CCc1c(F)ccc2cc(O)cc(-c3ncc4c(NC56CCC(C#N)(CC5)CC6)nc(OC[C@@]56CCCN5C[C@H](F)C6)nc4c3F)c12` [Example 585, 4-((7-(8-ethyl-7-fluoro-3-hydroxynaphthalen-1-yl)-8-fluoro-2-(((2R,7aS)-2-fluorohexahydro-1H-pyrrolizin-7a-yl)methoxy)pyrido[4,3-d]pyrimidin-4-yl)amino)bicyclo[2.2.2]octane-1-carbonitrile], the IC50 at KRas^G12D worked out at 434 nM; at KRas^G12R, 76 nM; at KRas^G12V, 103 nM; in assay [1], 4610 nM; in assay [2], 2060 nM.
Regarding `CCc1c(F)ccc2cc(O)cc(-c3ncc4c(N5CCCC(N6C(=O)CCC6=O)C5)nc(OC[C@@]56CCCN5C[C@H](F)C6)nc4c3F)c12` (stereo partly drawn) [Example 638, 1-(1-(7-(8-ethyl-7-fluoro-3-hydroxynaphthalen-1-yl)-8-fluoro-2-(((2R,7aS)-2-fluorotetrahydro-1H-pyrrolizin-7a(5H)-yl)methoxy)pyrido[4,3-d]pyrimidin-4-yl)piperidin-3-yl)pyrrolidine-2,5-dione], the IC50 at KRas^G12D was 41 nM; at KRas^G12R, 16 nM; on KRas^G12V, 34 nM; in assay [1], 930 nM; in assay [2], 1270 nM.
The matching figures for `CCc1c(F)ccc2cc(O)cc(-c3ncc4c(N5CCC(N6C(=O)OC7CNCC76)CC5)nc(OC[C@@]56CCCN5C[C@H](F)C6)nc4c3F)c12` (stereo partly drawn) [Example 659, 3-(1-(7-(8-ethyl-7-fluoro-3-hydroxynaphthalen-1-yl)-8-fluoro-2-(((2R,7aS)-2-fluorotetrahydro-1H-pyrrolizin-7a(5H)-yl)methoxy)pyrido[4,3-d]pyrimidin-4-yl)piperidin-4-yl)hexahydro-2H-pyrrolo[3,4-d]oxazol-2-one]: 462 nM, 1610 nM, 582 nM, greater than 10000 nM and greater than 10000 nM.

A word on the IC50: it is the concentration that gives 50% inhibition. A low value points to greater potency in that assay. A word on the inhibition: it is the drop in the measured response relative to a control, in per cent.
